pIC50: −log10 of the molar value.
These compounds were tested against c-Met (Homo sapiens (Human), UniProt P08581) (assay: Analysis of the inhibition of c-Met activity (ADP-Glo Kinase Assay)). Conditions: c-Met enzyme 2 ng/μL, 250 μM G4Y1 peptide, 50 μM ATP, 1 hour at room temperature, luminescence.
Type: biochemical
Protocol: Analysis of the Inhibition of c-Met Activity (ADP-Glo™ Kinase Assay
The inhibitory effect of the compounds of the present invention on the activity of c-Met was confirmed as follows.
Specifically, 250 μM G4Y1 peptide, which serves as a substrate for c-Met enzyme (2 ng/μL), and 50 μM ATP were subjected to an enzyme reaction in a reaction buffer (40 mM Tris-HCl (pH 7.5), 20 mM MgCl2, 0.1 mg/mL bovine serum albumin, and 50 μM DTT). The compounds prepared in Examples and comparative compounds were treated at various concentrations and reacted at room temperature for 1 hour, sequentially added with ADP-Glo™ Reagent and the Kinase detection reagent, and reacted at room temperature for 40 minutes and 30 minutes, respectively.
Then, luminescence of the compounds was measured using the Wallaac Victor 2™ (PerkinElmer life sciences, 1420-042). The activity of c-Met inhibitors was evaluated by analyzing the data based on the measured RLU values. The activity of c-Met inhibitors was evaluated as the percentage of remaining activity of the c-Met enzyme in the samples treated with the compounds at concentrations to be tested, with the RLU value of the sample set at 100% control group.

c-Met, sequence (P08581 25-1390): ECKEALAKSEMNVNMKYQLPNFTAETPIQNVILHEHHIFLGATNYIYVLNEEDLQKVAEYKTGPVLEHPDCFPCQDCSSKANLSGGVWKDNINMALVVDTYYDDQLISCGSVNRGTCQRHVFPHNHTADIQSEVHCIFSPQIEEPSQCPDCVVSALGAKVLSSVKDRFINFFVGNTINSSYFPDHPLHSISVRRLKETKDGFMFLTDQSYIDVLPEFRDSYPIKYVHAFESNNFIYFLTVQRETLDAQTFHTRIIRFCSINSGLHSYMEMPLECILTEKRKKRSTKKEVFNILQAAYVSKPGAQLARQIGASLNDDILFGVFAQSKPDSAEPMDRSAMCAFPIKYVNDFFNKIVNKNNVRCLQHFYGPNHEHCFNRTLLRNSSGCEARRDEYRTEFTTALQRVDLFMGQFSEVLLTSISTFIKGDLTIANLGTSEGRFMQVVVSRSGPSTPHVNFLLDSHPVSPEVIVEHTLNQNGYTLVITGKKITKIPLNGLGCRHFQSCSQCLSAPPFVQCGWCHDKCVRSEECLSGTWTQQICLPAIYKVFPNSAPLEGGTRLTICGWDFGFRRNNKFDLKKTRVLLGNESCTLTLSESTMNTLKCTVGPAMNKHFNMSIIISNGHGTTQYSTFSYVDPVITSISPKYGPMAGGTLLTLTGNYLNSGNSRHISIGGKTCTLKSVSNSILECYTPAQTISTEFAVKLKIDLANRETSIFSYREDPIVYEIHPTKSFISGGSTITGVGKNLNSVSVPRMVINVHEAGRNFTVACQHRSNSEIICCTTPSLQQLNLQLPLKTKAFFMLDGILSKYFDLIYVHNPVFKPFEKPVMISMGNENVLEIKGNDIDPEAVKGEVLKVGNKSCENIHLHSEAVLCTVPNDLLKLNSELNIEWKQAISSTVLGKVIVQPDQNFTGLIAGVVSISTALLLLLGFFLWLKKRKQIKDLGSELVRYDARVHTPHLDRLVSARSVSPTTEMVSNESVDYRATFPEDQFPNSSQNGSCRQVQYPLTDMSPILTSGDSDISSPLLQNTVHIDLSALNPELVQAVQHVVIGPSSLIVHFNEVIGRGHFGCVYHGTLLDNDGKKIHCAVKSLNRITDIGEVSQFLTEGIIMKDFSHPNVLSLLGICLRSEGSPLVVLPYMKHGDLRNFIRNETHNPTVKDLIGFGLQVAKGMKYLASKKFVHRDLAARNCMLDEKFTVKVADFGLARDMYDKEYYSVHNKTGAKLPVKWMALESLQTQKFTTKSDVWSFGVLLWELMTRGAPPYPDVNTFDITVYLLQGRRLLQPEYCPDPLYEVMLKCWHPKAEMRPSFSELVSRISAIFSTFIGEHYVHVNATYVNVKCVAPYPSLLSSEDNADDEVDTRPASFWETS

pIC50, > 7.40:
CCOc1ccn(-c2ccc(F)cc2)c(=O)c1C(=O)Nc1ccc(Oc2ccnn3ccc(-c4ccncc4)c23)c(F)c1 [Example 7]
CCOc1ccn(-c2ccc(F)cc2)c(=O)c1C(=O)Nc1ccc(Oc2ccnn3ccc(-c4cccc(C=O)c4)c23)c(F)c1 [Example 23, 4-ethoxy-N-(3-fluoro-4-((5-(3-formylphenyl)pyrrolo[1,2-b]pyridazin-4-yl)oxy)phenyl)-1-(4-fluorophenyl)-2-oxo-1,2-dihydropyridin-3-carboxamide]
O=C(Nc1ccc(Oc2ccnn3ccc(-c4cccc(CO)c4)c23)c(F)c1)c1cccn(-c2ccc(F)cc2)c1=O [Example 29]
CCOc1ccn(-c2ccc(F)cc2)c(=O)c1C(=O)Nc1ccc(Oc2ccnn3ccc(-c4cccc(C(C)(C)O)c4)c23)c(F)c1 [Example 43, 4-ethoxy-N-(3-fluoro-4-((5-(3-(2-hydroxypropan-2-yl)phenyl)pyrrolo[1,2-b]pyridazin-4-yl)oxy)phenyl)-1-(4-fluorophenyl)-2-oxo-1,2-dihydropyridin-3-carboxamide]
CCOc1ccn(-c2ccc(F)cc2)c(=O)c1C(=O)Nc1ccc(Oc2ccnn3ccc(-c4cccc(C(C)O)c4)c23)c(F)c1 (centres unmarked) [Example 46, 4-ethoxy-N-(3-fluoro-4-((5-(3-(1-hydroxyethyl)phenyl)pyrrolo[1,2-b]pyridazin-4-yl)oxy)phenyl)-1-(4-fluorophenyl)-2-oxo-1,2-dihydropyridin-3-carboxamide]
CC(O)c1cccc(-c2ccn3nccc(Oc4ccc(NC(=O)c5cccn(-c6ccc(F)cc6)c5=O)cc4F)c23)c1 (centres unmarked) [Example 47, N-(3-fluoro-4-((5-(3-(1-hydroxyethyl)phenyl)pyrrolo[1,2-b]pyridazin-4-yl)oxy)phenyl)-1-(4-fluorophenyl)-2-oxo-1,2-dihydropyridin-3-carboxamide]
CCOc1ccn(-c2ccc(F)cc2)c(=O)c1C(=O)Nc1ccc(Oc2ccnn3ccc(-c4cccc(CN5CCOCC5)c4)c23)c(F)c1 [Example 49]
CCOc1ccn(-c2ccc(F)cc2)c(=O)c1C(=O)Nc1ccc(Oc2ccnn3ccc(-c4cccc(C(=O)N5CCOCC5)c4)c23)c(F)c1 [Example 50, 4-ethoxy-N-(3-fluoro-4-((5-(3-morpholin-4-carbonylphenyl)pyrrolo[1,2-b]pyridazin-4-yl)oxy)phenyl)-1-(4-fluorophenyl)-2-oxo-1,2-dihydropyridin-3-carboxamide]
CCOc1ccn(-c2ccc(F)cc2)c(=O)c1C(=O)Nc1ccc(Oc2ccnn3ccc(-c4cccc(N)c4)c23)c(F)c1 [Example 53, 4-ethoxy-N-(3-fluoro-4-((5-(3-aminophenyl)pyrrolo[1,2-b]pyridazin-4-yl)oxy)phenyl)-1-(4-fluorophenyl)-2-oxo-1,2-dihydropyridin-3-carboxamide]
CCOc1ccn(-c2ccc(F)cc2)c(=O)c1C(=O)Nc1ccc(Oc2ccnn3ccc(-c4cccc(CN(C)C)c4)c23)c(F)c1 [Example 56, N-(4-((5-(3-((dimethylamino)methyl)phenyl)pyrrolo[1,2-b]pyridazin-4-yl)oxy)-3-fluorophenyl)-4-ethoxy-1-(4-fluorophenyl)-2-oxo-1,2-dihydropyridin-3-carboxamide]
Cc1ccc(-c2ccn3nccc(Oc4ccc(NC(=O)C5(C(=O)Nc6ccc(F)cc6)CC5)cc4F)c23)cc1N [Example 78]
Cc1c(N)cccc1-c1ccn2nccc(Oc3ccc(NC(=O)C4(C(=O)Nc5ccc(F)cc5)CC4)cc3F)c12 [Example 79]
COc1ccc(-c2ccn3nccc(Oc4ccc(NC(=O)C5(C(=O)Nc6ccc(F)cc6)CC5)cc4F)c23)cc1N [Example 82]
Nc1ccc(F)c(-c2ccn3nccc(Oc4ccc(NC(=O)C5(C(=O)Nc6ccc(F)cc6)CC5)cc4F)c23)c1 [Example 83]

From US9815840B2 (CJ Healthcare Corporation, priority 2013, dated 2017)
